“Also recorded” adds a separate entry of the source. Peptide text beside a SMILES is read from it.
Tested on: male runners
Assay: Lower body reaction, 20-second Quick Board test
Type: in vivo, human
Conditions: for QuickBoard Hit Δ, group mean: Post-Pre; for changes in lower body reaction (Quick Board): LD and HD, no significant differences between groups
Method: The testing protocol is depicted in FIG. 1. Data collection occurred on four separate occasions. Each session required participants to perform a 60-min run at 75% of their previously measured VO2max. Following this run, all participants performed a run at 90% of their VO2max until volitional exhaustion. All participants performed their first trial (DHY) without any rehydration. During this session the total weight lost during the trial was determined. The fluid loss that occurred during this session was then used to determine the participant's swear rate (L·hr^−1). To continue in the study, participant's sweat rate was or exceeded 1.3 L·hr^−1. During the next three trails participants were provided 250 ml of fluid every 15 minutes in equal amounts. During one of the trials participants consumed only a flavored sports drink (ELECT only), while during the other trials participants consumed the alanine-glutamine supplement (Sustamine™) mixed in the same flavored sports drink at either a low (LD: 300 mg per 500 ml) or high (HD: 1 g per 500 ml) dose. A Lower body reaction time was assessed by a 20-second reaction test on the Quick Board™ (The Quick Board, LLC, Memphis, Tenn.) reaction timer (QB). Participants stood on a board of five circles, in a 2×1×2 pattern. The participant straddled the middle circle and reacted to a visual stimulus located on a display box that depicted one of five potential lights that corresponded with the circles on the board. Upon activation of the light, the participant attempted to move the foot closest to the circle that corresponded to the visual stimulus. Upon a successful connection the next stimulus appeared. The total number of successful attempts for the 20-second test and the average time between the activation of the light and the response to the corresponding circle were recorded. Additionally, to make inferences on true effects of the different trials on reaction performance, an analysis based on the magnitude of differences, calculated from 90% confidence intervals, as previously described by Batterham and Hopkins (2005), was used in this study. Differences in Post-Pre performance (Δresponse) between trials were analyzed via a published spreadsheet (Hopkins 2007), with the smallest non-trivial change set at 20% of the grand standard deviation (Batterham and Hopkins 2005). All data are expressed as a mean effect±SD, with percent chances of a beneficial, trivial or negative outcome. Qualitative inferences, based on quantitative chances were assessed as: <1% almost certainly not, 1-5% very unlikely, 5-25% unlikely, 25-75% possibly, 75-95% likely, 95-99% very likely and >99% almost certainly (Hopkins 2002).

## C[C@H](N)C(=O)N[C@@H](CCC(N)=O)C(=O)O [L-Alanyl-L-Glutamine] (H-Ala-Gln-OH)
Dehydration vs High Dose
  QuickBoard Hit Δ, Interpretation: likely lower
  QuickBoard Hit Δ, Mean Difference: −2.6
  QuickBoard Hit Δ, Percent Negative: 90.99%
  QuickBoard Hit Δ, Percent Positive: 1.92%
  QuickBoard Hit Δ, Percent Trivial: 7.10%
Dehydration vs Low Dose
  QuickBoard Hit Δ, Interpretation: likely lower
  QuickBoard Hit Δ, Mean Difference: −2.2
  QuickBoard Hit Δ, Percent Negative: 88.90%
  QuickBoard Hit Δ, Percent Positive: 1.93%
  QuickBoard Hit Δ, Percent Trivial: 9.16%
Gatorade vs High Dose
  QuickBoard Hit Δ, Interpretation: Unclear
  QuickBoard Hit Δ, Mean Difference: −1.7
  QuickBoard Hit Δ, Percent Negative: 73.53%
  QuickBoard Hit Δ, Percent Positive: 9.72%
  QuickBoard Hit Δ, Percent Trivial: 16.75%
High Dose (1 g per 500 ml)
  QuickBoard Hit Δ, group mean: 1.17
  changes in lower body reaction (Quick Board): performance appeared to improve in LD and HD
Listed as L-alanyl-L-glutamine
  changes in lower body reaction (Quick Board): Performance appeared to improve
Low Dose (300 mg per 500 ml)
  QuickBoard Hit Δ, group mean: 0.75
Low Dose vs Gatorade
  QuickBoard Hit Δ, Interpretation: Unclear
  QuickBoard Hit Δ, Mean Difference: 1.3
  QuickBoard Hit Δ, Percent Negative: 17.75%
  QuickBoard Hit Δ, Percent Positive: 63.09%
  QuickBoard Hit Δ, Percent Trivial: 19.15%
Low Dose vs High Dose
  QuickBoard Hit Δ, Interpretation: trivial; also recorded: Possibly
  QuickBoard Hit Δ, Mean Difference: 0.42
  QuickBoard Hit Δ, Percent Negative: 29.69%
  QuickBoard Hit Δ, Percent Positive: 0.19%
  QuickBoard Hit Δ, Percent Trivial: 70.12%

— patent publication US10369185B2, “Methods and compositions for enhancement of ability to concentrate” (KYOWA HAKKO BIO CO., LTD., priority 2014, dated 2019)
